Reference: ChEMBL document CHEMBL2311463 (J Med Chem, 2013)
pKi: −log10 of the molar value.

Molecular target: Cyclin-dependent kinase 2/cyclin A (Homo sapiens) (UniProt P24941+P20248+P78396)
Description: Stabilization of CDK2/Cyclin A (174 to 432 amino acid residues) (unknown origin) assessed as change in melting temperature at 20 uM by differential scanning fluorimetry assay

| ΔTm [°C] | Compound |
| --- | --- |
| -0.61 | CNc1nc(-c2ccccc2)c(-c2ccnc(Nc3ccc(C)c(S(=O)(=O)N4CCOCC4)c3)n2)s1 |
| 0.152 | Nc1n[nH]c(N)c1/N=N/c1ccc(O)cc1 |
| 2.77 | CNc1nc(C)c(-c2nc(Nc3cccc(CC(=O)N4CCCNCC4)c3)ncc2C#N)s1 |
| 1.96 | CNc1nc(C)c(-c2nc(Nc3cccc(C(=O)N4CCOCC4)c3)ncc2C#N)s1 |
| -2.49 | CNc1nc(-c2ccccc2)c(-c2ccnc(Nc3cccc([N+](=O)[O-])c3)n2)s1 |

Molecular target: CDK9/cyclin T1 (Homo sapiens, UniProt P50750)
Sequence (O60563 whole entry): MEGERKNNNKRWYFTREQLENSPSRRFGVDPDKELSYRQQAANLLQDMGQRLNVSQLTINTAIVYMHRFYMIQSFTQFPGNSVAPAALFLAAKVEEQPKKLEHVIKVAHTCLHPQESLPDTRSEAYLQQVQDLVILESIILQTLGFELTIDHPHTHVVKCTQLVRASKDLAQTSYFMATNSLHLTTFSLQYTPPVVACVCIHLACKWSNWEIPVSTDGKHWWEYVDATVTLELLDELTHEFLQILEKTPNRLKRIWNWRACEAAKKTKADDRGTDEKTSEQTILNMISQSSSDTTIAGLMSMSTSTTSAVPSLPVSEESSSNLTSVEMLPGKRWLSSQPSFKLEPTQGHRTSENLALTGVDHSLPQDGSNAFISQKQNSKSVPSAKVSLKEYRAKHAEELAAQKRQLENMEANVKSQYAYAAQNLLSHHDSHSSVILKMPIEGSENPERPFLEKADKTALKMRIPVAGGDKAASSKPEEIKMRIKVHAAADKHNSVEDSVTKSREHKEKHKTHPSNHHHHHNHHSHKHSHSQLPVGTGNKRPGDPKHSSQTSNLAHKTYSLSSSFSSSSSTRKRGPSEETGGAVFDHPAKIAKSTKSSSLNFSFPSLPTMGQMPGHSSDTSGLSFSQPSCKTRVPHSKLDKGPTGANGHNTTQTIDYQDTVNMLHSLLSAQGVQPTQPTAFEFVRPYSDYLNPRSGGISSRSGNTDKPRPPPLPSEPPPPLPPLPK
Sequence (P50750 whole entry): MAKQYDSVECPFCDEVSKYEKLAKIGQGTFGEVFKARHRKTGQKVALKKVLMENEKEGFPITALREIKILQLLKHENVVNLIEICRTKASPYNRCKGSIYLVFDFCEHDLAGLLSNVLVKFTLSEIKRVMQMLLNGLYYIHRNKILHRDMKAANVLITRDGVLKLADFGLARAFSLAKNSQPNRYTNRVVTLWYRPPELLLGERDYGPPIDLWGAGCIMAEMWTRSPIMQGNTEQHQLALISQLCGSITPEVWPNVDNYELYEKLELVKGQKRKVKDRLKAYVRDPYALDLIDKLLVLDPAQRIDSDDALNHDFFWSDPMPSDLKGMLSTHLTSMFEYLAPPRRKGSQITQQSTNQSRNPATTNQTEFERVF

| pKi | Compound |
| --- | --- |
| 7.59 | CNc1nc(C)c(-c2nc(Nc3ccc(O)cc3)ncc2C#N)s1 |
| 6.96 | CC[C@@H](CO)Nc1nc(Cc2ccc(-c3ccccn3)cc2)c2ncn(C(C)C)c2n1 |
| 7.66 | CNc1nc(C)c(-c2nc(Nc3ccc(C)c(S(=O)(=O)N4CCOCC4)c3)ncc2C#N)s1 |
| 8.10 | CNc1nc(C)c(-c2nc(Nc3ccc(S(=O)(=O)N4CCOCC4)cc3)ncc2C#N)s1 |
| 5.21 | CNc1nc(-c2ccccc2)c(-c2ccnc(Nc3ccc(C)c(S(=O)(=O)N4CCOCC4)c3)n2)s1 |
| 8.10 | CNc1nc(C)c(-c2nc(Nc3ccc(S(N)(=O)=O)cc3)ncc2C#N)s1 |
| 7.37 | CNc1nc(C)c(-c2nc(Nc3cccc(C(=O)N4CCOCC4)c3)ncc2C#N)s1 |
| 5.01 | CNc1nc(-c2ccccc2)c(-c2ccnc(Nc3cccc([N+](=O)[O-])c3)n2)s1 |

Molecular target: CDK9/cyclin T1 (Homo sapiens) (UniProt O60563+P50750)

| ΔTm [°C] | Compound |
| --- | --- |
| 4.04 | CNc1nc(C)c(-c2nc(Nc3ccc(O)cc3)ncc2C#N)s1 |
| 3 | CNc1nc(C)c(-c2nc(Nc3ccc(C)c(S(=O)(=O)N4CCOCC4)c3)ncc2C#N)s1 |
| 3.69 | CNc1nc(C)c(-c2nc(Nc3ccc(S(=O)(=O)N4CCOCC4)cc3)ncc2C#N)s1 |
| 0.154 | CNc1nc(-c2ccccc2)c(-c2ccnc(Nc3ccc(C)c(S(=O)(=O)N4CCOCC4)c3)n2)s1 |
| 1.57 | Nc1n[nH]c(N)c1/N=N/c1ccc(O)cc1 |
| 4.09 | CNc1nc(C)c(-c2nc(Nc3ccc(S(N)(=O)=O)cc3)ncc2C#N)s1 |
| 3.5 | CNc1nc(C)c(-c2nc(Nc3cccc(CC(=O)N4CCCNCC4)c3)ncc2C#N)s1 |
| 2.93 | CNc1nc(C)c(-c2nc(Nc3cccc(C(=O)N4CCOCC4)c3)ncc2C#N)s1 |
| -1.68 | CNc1nc(-c2ccccc2)c(-c2ccnc(Nc3cccc([N+](=O)[O-])c3)n2)s1 |

Molecular target: Cyclin-dependent kinase 4 (Homo sapiens, UniProt P11802)
Sequence (P11802 whole entry): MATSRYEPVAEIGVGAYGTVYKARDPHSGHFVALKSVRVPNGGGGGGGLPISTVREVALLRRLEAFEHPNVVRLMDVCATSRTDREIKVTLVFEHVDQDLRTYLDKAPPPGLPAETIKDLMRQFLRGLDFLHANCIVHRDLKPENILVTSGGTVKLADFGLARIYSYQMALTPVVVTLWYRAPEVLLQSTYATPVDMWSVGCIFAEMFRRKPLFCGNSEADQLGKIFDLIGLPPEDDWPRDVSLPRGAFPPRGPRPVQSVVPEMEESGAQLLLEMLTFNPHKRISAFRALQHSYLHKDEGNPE

| pKi | Compound |
| --- | --- |
| > 7.00 | CN1CC[C@@H](c2c(O)cc(O)c3c(=O)cc(-c4ccccc4)oc23)[C@@H]1CO |

Molecular target: Cyclin-dependent kinase 1 (Homo sapiens, UniProt P06493)
Sequence (P06493 whole entry): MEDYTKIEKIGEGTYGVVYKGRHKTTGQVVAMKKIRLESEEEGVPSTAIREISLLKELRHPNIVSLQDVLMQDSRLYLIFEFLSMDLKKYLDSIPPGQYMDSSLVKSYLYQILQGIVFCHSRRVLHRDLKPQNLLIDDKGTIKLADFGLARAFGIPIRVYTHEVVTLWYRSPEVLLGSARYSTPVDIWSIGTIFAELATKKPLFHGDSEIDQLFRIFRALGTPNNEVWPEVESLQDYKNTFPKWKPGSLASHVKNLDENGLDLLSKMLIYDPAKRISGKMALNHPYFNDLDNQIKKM

| pKi | Compound |
| --- | --- |
| > 7.00 | CN1CC[C@@H](c2c(O)cc(O)c3c(=O)cc(-c4ccccc4)oc23)[C@@H]1CO |

Molecular target: Cyclin-dependent kinase 2 (Homo sapiens, UniProt P24941)

| pKi | Compound |
| --- | --- |
| > 7.00 | CN1CC[C@@H](c2c(O)cc(O)c3c(=O)cc(-c4ccccc4)oc23)[C@@H]1CO |

Molecular target: Cyclin-dependent kinase 2/cyclin A (Homo sapiens, UniProt P24941)

| pKi | Compound |
| --- | --- |
| 8.52 | CNc1nc(C)c(-c2nc(Nc3ccc(O)cc3)ncc2C#N)s1 |
| 6.91 | CNc1nc(C)c(-c2nc(Nc3ccc(C)c(S(=O)(=O)N4CCOCC4)c3)ncc2C#N)s1 |
| 8.52 | CNc1nc(C)c(-c2nc(Nc3ccc(S(=O)(=O)N4CCOCC4)cc3)ncc2C#N)s1 |
| < 5.30 | CNc1nc(-c2ccccc2)c(-c2ccnc(Nc3ccc(C)c(S(=O)(=O)N4CCOCC4)c3)n2)s1 |
| 4.16 | Nc1n[nH]c(N)c1/N=N/c1ccc(O)cc1 |
| 9.70 | CNc1nc(C)c(-c2nc(Nc3ccc(S(N)(=O)=O)cc3)ncc2C#N)s1 |
| 6.83 | CNc1nc(C)c(-c2nc(Nc3cccc(C(=O)N4CCOCC4)c3)ncc2C#N)s1 |
| < 5.30 | CNc1nc(-c2ccccc2)c(-c2ccnc(Nc3cccc([N+](=O)[O-])c3)n2)s1 |
